The text below walks through data of patent publication US20240197686A1, “ANTI-TUMORAL EFFECTIVE BENZIMIDAZOLE ZINC COMPLEXES” (INONU UNIVERSITESI REKTORLUGU, priority 2022, published 2024).

The subject of data set [1] is lung, liver, kidney tissues. Briefly: Histology (H-E, light microscope) of lung, liver, kidney tissues of tumour developed nude rats. The following applies: for Histopathological damage in lung, liver and kidney tissues (overall): rat, in vivo. It is filed as in vivo. The text has this:
After […] operation; lung, liver, kidney tissues were taken and 10% were fixed in formaldehyde, and the sections prepared after their histological tissue follow-up procedures were examined with a light microscope.

The next data set has as its system Lung Cancer. As to conditions: lung cancer treatment; cited from earlier work.

Entries after “also recorded” stand apart in the source; their conditions may differ.

`N.N.[Cl][Pt][Cl]` [Cisplatin, cis-diamminedichloroplatinum II]: in data set [1] (H-E sections), the Kidney histology result was “narrowing in glomerular Bowman's space (arrow), tubule epithelial damage; also recorded: Glomerular collapse and vascular congestion”; the Liver histology result was “hemorage (aster) in parenchymal area, vascular congestion; also recorded: hemorrhagic fields and vascular congestion in parenchyma”; the Lung histology entry is “Secretion (aster) in bronchiole lumen, vascular congestion; also recorded: Secretion accumulations and vascular congestion”. Also, in data set [1], the “Histopathological damage in lung, liver and kidney tissues (overall)” value was “caused tissue damages”. The “Histopathological damage in lung, liver and kidney tissues (overall)” value in data set [1] (listed as cisplatin) was “causes histopathological damages in lung, liver and kidney tissues”. The surviving in the data set with Lung Cancer is given as 6 months.
